The test system of data set [1] is SW-480. Kind of data set: MTT assay, growth inhibition. It is filed as cell-based, human. Conditions: for inhibition at 20 µM: Homo sapiens, SW480, 24 h; for % Of growth inhibition SW-480: 20 μM, 24 h. The protocol: (§1) First, we investigated whether allylated MAC alter the viability or have cytotoxic effects on cells in culture. We have performed MTT tetrazolium reduction assay following exposure of cancer cells (gastric cancer, BGC823 and SGC-7901; colon cancer, HT-29, HCT-116 and SW-480) and normal gastric epithelial cells (GES-1) to all 20 allylated MAC at a concentration of 20 μM for 24 h. […] In addition, we also found notable solubility and stability profile of these compounds (Supplementary Figure 1).
(§2) Cells were plated at a density of 8 × 10^3 cells/well in 96-well plates and allowed to attach overnight. Stock solutions of allylated MAC and curcumin were prepared in DMSO and diluted in culture media to obtain appropriate concentration. Cells were treated for 24 h and 48 h, following which, 20 μL of 5 mg/ml MTT reagent was added. Purple formazan product was dissolved by the addition of 100 μL DMSO to each well. Absorbance was then monitored at 490 nm using a plate reader (Molecular Device Spectra MAX190, USA). Percentage of cytotoxicity was determined using the following formula: Growth inhibition (%) = (OD of control−OD of test/OD of control×100%).

The subject of data set [2] is HCT-116. Nature of the data set: MTT assay, growth inhibition. It counts as cell-based, human. Conditions: for inhibition at 20 µM: Homo sapiens, HCT-116, 24 h; for % Of growth inhibition HCT-116: 20 μM, 24 h. The protocol:
as §1, §2

Data set [3] concerns HT-29. Kind of data set: MTT assay, growth inhibition. It is filed as cell-based. Conditions: Homo sapiens, HT-29, 24 h. The protocol: as §1, §2
In data set [4] the test system is GES-1. Kind of data set: MTT assay, growth inhibition in normal gastric epithelial cells. Conditions: for inhibition at 20 µM: Homo sapiens, GES1, 24 h, normal gastric epithelial cells; for inhibition of the normal epithelial cells (selective cytotoxicity in cancer cell lines), in words: 20 μM, 24 h. It counts as cell-based, human. The procedure: as §1, §2
Data set [5] relates to BGC-823. Nature of the data set: MTT assay, growth inhibition / cell viability. It counts as cell-based. Conditions: Homo sapiens, BGC-823, 20 μM, 24 h. The protocol: as §1, §2
The subject of data set [6] is SGC-7901. Kind of data set: MTT assay, growth inhibition / cell viability. It is filed as cell-based. Conditions: Homo sapiens, SGC-7901, 24 h, 20 μM, 24 h. The protocol: as §1, §2

`C=CCc1cc(/C=C2\CN(C3CC3)C/C(=C\c3ccc(OC)c(OC)c3)C2=O)ccc1O` [CA17]: the inhibition at 20 µM in data set [1] was 64.7 ± 4.65%; in data set [2] it was 78.1 ± 64%; in data set [3] it was below 60%; in data set [4], 61.9 ± 1.41%; in data set [5], 37 ± 4.35%; in data set [6], 73.7 ± 1.26%.

Regarding `C=CCc1cc(/C=C2\CN(C3CC3)C/C(=C\c3ccc(N(C)C)cc3)C2=O)ccc1O` [CA15], the inhibition at 20 µM in data set [1] was 36.3 ± 1.7%; in data set [2] it was 55%; in data set [3], below 60%; in data set [4], 23.8 ± 4.79%; in data set [5] it was 50.6 ± 2.49%; in data set [6] it was 50.5 ± 4.3%. For the same compound, the “% Of growth inhibition HCT-116” value in data set [2] is recorded as 43.17 ± 8.26%. In addition, the “inhibition of the normal epithelial cells (selective cytotoxicity in cancer cell lines), in words” value in data set [4] is “minimal inhibition”.

In the case of `C=CCc1cc(/C=C2\CN(C3CC3)C/C(=C\c3c(OC)cc(OC)cc3OC)C2=O)ccc1O` [CA18], the “% Of growth inhibition SW-480” value in data set [1] is recorded as 56.88 ± 3.82%. Besides, the inhibition at 20 µM in data set [2] was 74.8 ± 1.25%; in data set [3], 63 ± 4.2%; in data set [4], 57.8 ± 3.58%; in data set [5], 57.96 ± 0.01%; in data set [6], 61.3 ± 4.02%.

Turning to `C=CCc1cc(/C=C2\COC/C(=C\c3ccc(O)c(CC=C)c3)C2=O)ccc1O` [CA8], the inhibition at 20 µM is 79.3 ± 4.37% in data set [1]; 55% in data set [2]; 71.1 ± 2.6% in data set [3]; 27 ± 3.4% in data set [4]; 71.2 ± 1.07% in data set [5]; above 80% in data set [6]. In data set [2], the “% Of growth inhibition HCT-116” value is 38.83 ± 4.23%.

As for `C=CCc1cc(/C=C2\CN(C3CC3)C/C(=C\c3cc(OC)c(OC)cc3OC)C2=O)ccc1O` [CA16], the “% Of growth inhibition SW-480” value in data set [1] was 35.69 ± 5.91%. In addition, the inhibition at 20 µM was 33.8 to 57% in data set [1]; 60.1 ± 2.02% in data set [2]; 68 ± 1.39% in data set [3]; 41.3 ± 5.22% in data set [4]; 60.7 ± 5.64% in data set [5]; 60 ± 7.35% in data set [6].

`C=CCc1cc(/C=C2\CN(Cc3ccccc3)C/C(=C\c3ccc(O)c(CC=C)c3)C2=O)ccc1O` [CA6]: the inhibition at 20 µM is 79.1 ± 4.2% in data set [1]; 70% in data set [2]; 79.7 ± 3.11% in data set [3]; 22.6 ± 6.08% in data set [4]; 65.83 ± 0.52% in data set [5]; above 80% in data set [6]. In data set [2], the “% Of growth inhibition HCT-116” value came out at 72.58 ± 2.72%. In addition, the “inhibition of the normal epithelial cells (selective cytotoxicity in cancer cell lines), in words” value in data set [4] is “minimal inhibition”.

As to `C=CCc1cc(/C=C2\CN(S(=O)(=O)c3ccccc3)C/C(=C\c3ccc(O)c(CC=C)c3)C2=O)ccc1O` [CA5], the inhibition at 20 µM in data set [1] is 77.1 ± 3.79%; in data set [2], 55%; in data set [3] it was 71.2 ± 1.99%; in data set [4], 63.8 ± 2.33%; in data set [5] it was 63.3 ± 5.52%; in data set [6], above 80%. Besides, in data set [2], the “% Of growth inhibition HCT-116” value was determined as 43.04 ± 4.24%.

Consider `C=CCc1cc(/C=C2\CN(CC)C/C(=C\c3ccc(O)c(CC=C)c3)C2=O)ccc1O` [CA1], for which the inhibition at 20 µM in data set [1] is 71.3 ± 3.35%; in data set [2] it was 55%; in data set [3] it was below 60%; in data set [4], 22.8 ± 3.04%; in data set [5], 60.4 ± 0.62%; in data set [6], 66.1 ± 8.88%. In data set [2], the “% Of growth inhibition HCT-116” value was 50.22 ± 7.62%. Besides, in data set [4], the “inhibition of the normal epithelial cells (selective cytotoxicity in cancer cell lines), in words” value is recorded as “minimal inhibition”.

Turning to `C=CCc1cc(/C=C2\CN(C3CC3)C/C(=C\c3ccc(N4CCOCC4)cc3)C2=O)ccc1O` [CA12], the inhibition at 20 µM is 33.8 ± 1.98% in data set [1]; 70% in data set [2]; below 60% in data set [3]; 40 ± 3.29% in data set [4]; 40.1 ± 4.65% in data set [5]; 52.5 ± 5.54% in data set [6]. Besides, in data set [2], the “% Of growth inhibition HCT-116” value was 70.99 ± 3.12%.

For `C=CCc1cc(/C=C2\CN(C3CC3)C/C(=C\c3ccc(OC(C)(C)C)cc3)C2=O)ccc1O` [CA20], the inhibition at 20 µM in data set [1] is 61.5 ± 6.1%; in data set [2], 70%; in data set [3] it was 71.16 ± 0.6%; in data set [4], 25.8 ± 1.86%; in data set [5] it was 56.8 ± 0.81%; in data set [6] it was above 80%. The “% Of growth inhibition HCT-116” value in data set [2] turned out to be 73.62 ± 4.23%. Also, in data set [4], the “inhibition of the normal epithelial cells (selective cytotoxicity in cancer cell lines), in words” value is given as “minimal inhibition”.

Take `C=CCc1cc(/C=C2\CN(C3CC3)C/C(=C\c3ccc(O)c(CC=C)c3)C2=O)ccc1O` [CA4]: the inhibition at 20 µM in data set [1] stood at 81 ± 5.36%; in data set [2], 55%; in data set [3], 74.3 ± 0.79%; in data set [4] it was 63.4 ± 2.67%; in data set [5] it was 67.06 ± 0.4%; in data set [6] it was 77.8 ± 1.98%. In data set [2], the “% Of growth inhibition HCT-116” value is given as 44.18 ± 6.18%.

For `C=CCc1cc(/C=C2\CCC/C(=C\c3ccc(O)c(CC=C)c3)C2=O)ccc1O` [CA7], the inhibition at 20 µM in data set [1] is 71.7 ± 1.15%; in data set [2], 67 ± 4.92%; in data set [3], 79.5 ± 4.1%; in data set [4] it was above 60%; in data set [5], 71.2 ± 3.07%; in data set [6], above 80%.

`C=CCc1cc(/C=C2\CN(CCC)C/C(=C\c3ccc(O)c(CC=C)c3)C2=O)ccc1O` [CA2]: the inhibition at 20 µM turned out to be 76 ± 6.31% in data set [1]; 60.6 ± 0.98% in data set [2]; 67 ± 6.79% in data set [3]; 60.88 ± 0.41% in data set [4]; 63 ± 8.7% in data set [5]; 79.8 ± 0.9% in data set [6].

Regarding `C=CCc1cc(/C=C2\CSC/C(=C\c3ccc(O)c(CC=C)c3)C2=O)ccc1O` [CA9], the inhibition at 20 µM in data set [1] is 78 ± 5.69%; in data set [2], 67.3 ± 5.03%; in data set [3] it was 75.7 ± 2.18%; in data set [4], above 60%; in data set [5] it was 69.3 ± 3.13%; in data set [6] it was above 80%.

`C=CCc1cc(/C=C2\CN(C3CC3)C/C(=C\c3ccc(OC)cc3OC)C2=O)ccc1O` [CA19]: the inhibition at 20 µM stood at 60.4 ± 3.1% in data set [1]; 78.1 ± 4.72% in data set [2]; 62.6 ± 7.39% in data set [3]; 62 ± 4.58% in data set [4]; 59.2 ± 3.67% in data set [5]; 76.6 ± 5.18% in data set [6].

Take `C=CCc1cc(/C=C2\CN(C3CC3)C/C(=C\c3ccc(N4CCN(C)CC4)cc3)C2=O)ccc1O` [CA11]: the inhibition at 20 µM in data set [1] is 49.5 ± 6.47%; in data set [2] it was 55%; in data set [3], 63.3 ± 1.31%; in data set [4] it was 45.56 ± 0.39%; in data set [5] it was 61.33 ± 0.48%; in data set [6], 61 ± 4.97%. In addition, the “% Of growth inhibition HCT-116” value in data set [2] stood at 52.05 ± 1.91%.

For `C=CCc1cc(/C=C2\CN(C3CC3)C/C(=C\c3ccc(N(CC)CC)cc3)C2=O)ccc1O` [CA14], the inhibition at 20 µM in data set [1] is 57 ± 3.57%; in data set [2] it was 55%; in data set [3], below 60%; in data set [4], 47.9 ± 8.09%; in data set [5], 40.4 ± 5.7%; in data set [6] it was above 80%. Besides, in data set [2], the “% Of growth inhibition HCT-116” value is 52.10 ± 9.05%.

The record behind these values is paper PMC5731860, “Novel allylated monocarbonyl analogs of curcumin induce mitotic arrest and apoptosis by reactive oxygen species-mediated endoplasmic reticulum stress and inhibition of STAT3” (Oncotarget, 2017).
